Here are results for 34 compounds from patent publication US9359308B2, “Pyrazine kinase inhibitors” (Portola Pharmaceuticals, Inc., priority 2011, dated 2016).

In the experiment the target is T1, full length active recombinant SYK enzyme (Homo sapiens, UniProt P43405).
T1 construct: full length active recombinant SYK enzyme (Millipore, Calif.); purchased Millipore
Put plainly: Inhibition of Syk tyrosine phosphorylation activity (LANCE TR-FRET kinase assay). Type of experiment: biochemical. Conditions: activity in the Syk assays, class symbols. A digest of the protocol:
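1 nM full-length active recombinant SYK phosphorylated 550 nM biotin-DEEDYESP-OH with 100 μM ATP in 50 mM Tris pH 7.5, 5 mM MgCl2, 1 mM DTT and 3% DMSO for 1 h at room temperature. After EDTA quench, Eu-anti-phosphotyrosine/SA-APC TR-FRET was read after 1 h. IC50s came from non-linear regression.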
Consider `CC[C@@H](Nc1cnc(C(N)=O)c(Nc2ccc(-c3nnco3)cc2)n1)C(N)=O` [Example 27, (R)-3-(4-(1,3,4-oxadiazol-2-yl)phenylamino)-5-(1-amino-1-oxobutan-2-ylamino)pyrazine-2-carboxamide], for which the IC50 lay within 10 to 100 nM.
Then `CC(C)C[C@@H](Nc1cnc(C(N)=O)c(Nc2cncc(C(F)(F)F)c2)n1)C(N)=O` [Example 196, (R)-5-(1-amino-4-methyl-1-oxopentan-2-ylamino)-3-(5-(trifluoromethyl)pyridin-3-ylamino)pyrazine-2-carboxamide], with 10 to 100 nM; and `COc1cc(Nc2nc(N[C@H](CC3CC3)C(N)=O)cnc2C(N)=O)cc(OC)c1` [Example 164, (R)-5-(1-amino-3-cyclopropyl-1-oxopropan-2-ylamino)-3-(3,5-dimethoxyphenylamino)pyrazine-2-carboxamide], with 1 to 10 nM; and `Cc1ccc(Nc2nc(N[C@H](CC(C)C)C(N)=O)cnc2C(N)=O)cn1` [Example 86, (R)-5-(1-amino-4-methyl-1-oxopentan-2-ylamino)-3-(6-methylpyridin-3-ylamino)pyrazine-2-carboxamide], with 10 to 100 nM.
As for `NC(=O)c1ncc(N[C@H](CC(F)F)C(N)=O)nc1Nc1cnc2cccnc2c1` [Example 127, (R)-3-((1,5-naphthyridin-3-yl)amino)-5-((1-amino-4,4-difluoro-1-oxobutan-2-yl)amino)pyrazine-2-carboxamide], the figure is 1 to 10 nM; as for `NC(=O)c1ncc(N[C@@H]2CCCC[C@@H]2N)nc1Nc1ccnc(F)c1` [Example 263, 5-((1R,2S)-2-aminocyclohexylamino)-3-(2-fluoropyridin-4-ylamino)pyrazine-2-carboxamide], 1 to 10 nM.
As for `NC(=O)c1ncc(N[C@@H]2CCCC[C@@H]2N)nc1Nc1cccnc1` [Example 417, 5-(((1R,2S)-2-aminocyclohexyl)amino)-3-(pyridin-3-ylamino)pyrazine-2-carboxamide], the IC50 was less than 1 nM.
In the case of `NC(=O)c1ccc(Nc2nc(N[C@@H]3CCCC[C@@H]3N)cnc2C(N)=O)cc1` [Example 13, 5-((1R,2S)-2-aminocyclohexylamino)-3-(4-carbamoylphenylamino)pyrazine-2-carboxamide], the IC50 lay in the range of 1 to 10 nM.
For `CC(C)(C)C[C@@H](Nc1cnc(C(N)=O)c(Nc2snc3sccc23)n1)C(N)=O` [Example 261, (R)-5-(1-amino-4,4-dimethyl-1-oxopentan-2-ylamino)-3-(thieno[2,3-c]isothiazol-3-ylamino)pyrazine-2-carboxamide], the IC50 is 1 to 10 nM.
As for `CC[C@@H](Nc1cnc(C(N)=O)c(Nc2ccc3cnccc3c2)n1)C(N)=O` [Example 368, (R)-5-(1-amino-1-oxobutan-2-ylamino)-3-(isoquinolin-6-ylamino)pyrazine-2-carboxamide], the figure is 1 to 10 nM; as for `CC[C@@H](Nc1cnc(C(N)=O)c(Nc2cc(C(=O)N(C)C)ns2)n1)C(N)=O` [Example 249, (R)-5-(6-(1-amino-1-oxobutan-2-ylamino)-3-carbamoylpyrazin-2-ylamino)-N,N-dimethylisothiazole-3-carboxamide], 100 to 1000 nM; as for `Cn1ccc2c(Nc3nc(N[C@H](CC4CC4)C(N)=O)cnc3C(N)=O)cccc21` [Example 397, (R)-5-(1-amino-3-cyclopropyl-1-oxopropan-2-ylamino)-3-(1-methyl-1H-indol-4-ylamino)pyrazine-2-carboxamide], 1 to 10 nM.
Then `NC(=O)c1ncc(N[C@@H]2CCCC[C@@H]2N)nc1Nc1ccc2cccnc2c1` [Example 435, 5-(((1R,2S)-2-aminocyclohexyl)amino)-3-(quinolin-7-ylamino)pyrazine-2-carboxamide], with 1 to 10 nM; and `CC[C@@H](Nc1cnc(C(N)=O)c(Nc2ccnc3ncccc23)n1)C(N)=O` [Example 386, (R)-3-(1,8-naphthyridin-4-ylamino)-5-(1-amino-1-oxobutan-2-ylamino)pyrazine-2-carboxamide], with 1 to 10 nM.
Then `CCc1cc(Nc2nc(N[C@H](CC3CC3)C(N)=O)cnc2C(N)=O)sn1` [Example 225, (R)-5-(1-amino-3-cyclopropyl-1-oxopropan-2-ylamino)-3-(3-ethylisothiazol-5-ylamino)pyrazine-2-carboxamide], with 1 to 10 nM; and `CC(C)C[C@@H](Nc1cnc(C(N)=O)c(Nc2ccn(C)n2)n1)C(N)=O` [Example 180, (R)-5-(1-amino-4-methyl-1-oxopentan-2-ylamino)-3-(1-methyl-1H-pyrazol-3-ylamino)pyrazine-2-carboxamide], with greater than 1000 nM; and `NC(=O)c1ncc(N[C@H](Cc2cccs2)C(N)=O)nc1Nc1cnc2cccnc2c1` [Example 409, (R)-3-(1,5-naphthyridin-3-ylamino)-5-(1-amino-1-oxo-3-(thiophen-2-yl)propan-2-ylamino)pyrazine-2-carboxamide], with 1 to 10 nM.
For the compound `Cc1cc(Nc2nc(N[C@H](CC3CCCCC3)C(N)=O)cnc2C(N)=O)sn1` [Example 390, (R)-5-(1-amino-3-cyclohexyl-1-oxopropan-2-ylamino)-3-(3-methylisothiazol-5-ylamino)pyrazine-2-carboxamide], the IC50 lay within 10 to 100 nM.
As for `NC(=O)c1ncc(N[C@H](CC2CC2)C(N)=O)nc1Nc1ccc2ncccc2c1` [Example 8, (R)-5-(1-amino-3-cyclopropyl-1-oxopropan-2-ylamino)-3-(quinolin-6-ylamino)pyrazine-2-carboxamide], the figure is 1 to 10 nM; as for `CC(C)[C@@H](Nc1cnc(C(N)=O)c(Nc2cnc3ccc(F)cc3c2)n1)C(N)=O` [Example 200, (R)-5-(1-amino-3-methyl-1-oxobutan-2-ylamino)-3-(6-fluoroquinolin-3-ylamino)pyrazine-2-carboxamide], 1 to 10 nM.
Then `NC(=O)c1ncc(N[C@H](C2CC2)C2(N)CC2)nc1Nc1cccc(-c2ncccn2)c1` [Example 72, (R)-5-((1-aminocyclopropyl)(cyclopropyl)methylamino)-3-(3-(pyrimidin-2-yl)phenylamino)pyrazine-2-carboxamide], with 1 to 10 nM; and `CC(C)C[C@@H](Nc1cnc(C(N)=O)c(Nc2ccc(C(N)=O)cc2)n1)C(N)=O` [Example 20, (R)-5-(1-amino-4-methyl-1-oxopentan-2-ylamino)-3-(4-carbamoylphenylamino)pyrazine-2-carboxamide], with 1 to 10 nM; and `NC(=O)c1ncc(N[C@@H]2CCCC[C@@H]2N)nc1Nc1cncc(Cl)c1` [Example 217, 5-((1R,2S)-2-aminocyclohexylamino)-3-(5-chloropyridin-3-ylamino)pyrazine-2-carboxamide], with 1 to 10 nM.
Then `COc1cc(Nc2nc(N[C@@H]3CCCC[C@@H]3N)cnc2C(N)=O)ccn1` [Example 291, 5-((1R,2S)-2-aminocyclohexylamino)-3-(2-methoxypyridin-4-ylamino)pyrazine-2-carboxamide], with 1 to 10 nM; and `NC(=O)c1ncc(N[C@@H]2CCCC[C@@H]2N)nc1Nc1ccc(N2CCCCC2=O)cc1` [Example 441, 5-(((1R,2S)-2-aminocyclohexyl)amino)-3-((4-(2-oxopiperidin-1-yl)phenyl)amino)pyrazine-2-carboxamide], with 10 to 100 nM; and `Cn1ccc2c(Nc3nc(N[C@@H]4CCCC(F)(F)[C@@H]4N)cnc3C(N)=O)cccc21` [Example 392, 5-((1R,2R)-2-amino-3,3-difluorocyclohexylamino)-3-(1-methyl-1H-indol-4-ylamino)pyrazine-2-carboxamide], with 1 to 10 nM.
On to `CC[C@@H](Nc1cnc(C(N)=O)c(Nc2ccc3c(ccn3C)c2)n1)C(N)=O` [Example 393, (R)-5-(1-amino-1-oxobutan-2-ylamino)-3-(1-methyl-1H-indol-5-ylamino)pyrazine-2-carboxamide], for which the IC50 is 1 to 10 nM.
Then `NC(=O)c1ncc(N[C@@H]2CCCC[C@@H]2N)nc1Nc1cccc(-c2ncco2)c1` [Example 444, 5-(((1R,2S)-2-aminocyclohexyl)amino)-3-((3-(oxazol-2-yl)phenyl)amino)pyrazine-2-carboxamide], with less than 1 nM; and `CC(C)C[C@@H](Nc1cnc(C(N)=O)c(Nc2ccc(C(=O)N3CC(C#N)C3)nc2)n1)C(N)=O` [Example 321, (R)-5-(1-amino-4-methyl-1-oxopentan-2-ylamino)-3-(6-(3-cyanoazetidine-1-carbonyl)pyridin-3-ylamino)pyrazine-2-carboxamide], with 1 to 10 nM.
Then `NC(=O)c1ncc(N[C@@H]2CCOC[C@@H]2N)nc1Nc1cnc2ccccc2c1` [Example 79, 5-((3R,4R)-3-aminotetrahydro-2H-pyran-4-ylamino)-3-(quinolin-3-ylamino)pyrazine-2-carboxamide], with 1 to 10 nM.
For the compound `CC(C)C[C@@H](Nc1cnc(C(N)=O)c(Nc2ccc(-n3cccn3)cc2)n1)C(N)=O` [Example 71], the IC50 lay in the range of 10 to 100 nM.
Take `NC(=O)c1ncc(N[C@@H]2CCCC[C@@H]2N)nc1Nc1ccc(N2CCOCC2=O)c(F)c1` [Example 443, 5-(((1R,2S)-2-aminocyclohexyl)amino)-3-((3-fluoro-4-(3-oxomorpholino)phenyl)amino)pyrazine-2-carboxamide]: the IC50 fell in the range of 10 to 100 nM.
As for `NC(=O)c1ncc(N[C@@H]2CCCC[C@@H]2N)nc1Nc1cnsc1` [Example 430, 5-(((1R,2S)-2-aminocyclohexyl)amino)-3-(isothiazol-4-ylamino)pyrazine-2-carboxamide], the figure is 10 to 100 nM; as for `NC(=O)c1ncc(N[C@@H]2CCNC2)nc1Nc1cnc2ccncc2c1` [Example 117, (R)-3-((1,6-naphthyridin-3-yl)amino)-5-(pyrrolidin-3-ylamino)pyrazine-2-carboxamide], 10 to 100 nM.

The term IC50 denotes the concentration needed to halve the response being measured.
